According to paper PMC7138307 (PLoS ONE, 2020):
Read-outs that look alike come from different tables or passages of the source.

Experiments:
[1] = Pharmacokinetic experiment, free drug levels in mouse; type: in vivo
Description: In vitro plasma and brain protein binding values were generated via the Rapid Equilibrium Dialysis method. The compound of interest was incubated in K2EDTA mouse plasma and rat brain homogenate (homogenized 1:7 (w:v) in 1xPBS) purchased from BioIVT, opposite a buffered compartment of 100mM Potassium phosphate/150mM Sodium chloride, pH 7.4, at 1uM for 4hr and 6hr respectively. […] Free fractions (fu) were then calculated by comparing peak-area ratios of matrix and buffered compartments.
In vivo pharmacokinetic studies were conducted in accordance with Biogen IACUC guidelines in 20-25g C57BL/6 mice purchased from Charles River Labs. A total of 9 mice, split into 3 groups (A,B,C), were dosed subcutaneously at 30mg/kg (3mg/mL; 10mL/kg) in a vehicle of 20% Captisol. […] Mouse brains were harvested for total drug concentration measurement, placed into MP Biomedicals Lysing Matrix D tubes, and stored at -80°C, along with plasma samples to await quantitative analysis.
Total drug concentration in plasma and brain tissue was measured via well-established bioanalytical extraction (protein precipitation) and detection methods (LC-MS/MS). […] Reconstituted extracts were then analyzed via LC-MS/MS (AB Sciex 5500) utilizing a binary HPLC setup (Shimadzu LC-20ADvp) and reverse-phase chromatography gradient (ACE 3 C18-AR). […]

FES = target: T1, FES (Mus musculus, UniProt P16879); test: In vivo target engagement, KiNativ ADP probe, mouse brain lysates; conditions: 75 mg/kg I.P., one hour, peptide LRADNTPVAVKSCR, Lys1
T1 construct: homogenized brain lysates were labeled with Desthiobiotin-ADP-acyl phosphate probe; from tissue; host or cells: mouse cortical brain lysate
T1 sequence (P16879 whole entry): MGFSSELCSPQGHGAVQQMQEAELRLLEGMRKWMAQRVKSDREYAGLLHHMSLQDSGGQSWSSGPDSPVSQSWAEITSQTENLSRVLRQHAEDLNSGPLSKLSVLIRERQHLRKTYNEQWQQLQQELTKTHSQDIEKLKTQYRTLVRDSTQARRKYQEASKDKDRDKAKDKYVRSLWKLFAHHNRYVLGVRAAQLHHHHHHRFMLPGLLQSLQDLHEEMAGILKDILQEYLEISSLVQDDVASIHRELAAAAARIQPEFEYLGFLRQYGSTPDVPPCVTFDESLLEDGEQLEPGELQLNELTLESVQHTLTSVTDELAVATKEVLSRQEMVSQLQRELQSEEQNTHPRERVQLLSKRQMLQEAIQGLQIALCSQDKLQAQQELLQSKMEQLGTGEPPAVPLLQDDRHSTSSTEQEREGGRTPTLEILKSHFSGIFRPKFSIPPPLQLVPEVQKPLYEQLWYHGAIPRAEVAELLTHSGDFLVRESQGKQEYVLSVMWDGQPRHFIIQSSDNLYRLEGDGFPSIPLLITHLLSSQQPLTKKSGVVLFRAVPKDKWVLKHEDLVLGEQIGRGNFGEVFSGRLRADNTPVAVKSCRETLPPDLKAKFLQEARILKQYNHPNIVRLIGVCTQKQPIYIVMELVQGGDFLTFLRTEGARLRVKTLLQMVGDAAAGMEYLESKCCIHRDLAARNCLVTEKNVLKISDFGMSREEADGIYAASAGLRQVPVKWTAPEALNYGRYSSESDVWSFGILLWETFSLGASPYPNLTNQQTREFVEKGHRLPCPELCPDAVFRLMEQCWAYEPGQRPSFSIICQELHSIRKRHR
Text: (§1) To determine both in vivo target engagement and identify any potential off-target kinases inhibited by BIIB-TTBKi, we used a combination of desthiobiotin-ATP/ADP probes to covalently bind and biotinylate the conserved lysine residues at the active site of protein kinases (ActivX-KiNativ; Kyorin Pharmaceuticals, Ltd, Tokyo Japan). […] Lysates were trypsin digested and desthiobiotinylated peptides were captured on streptavidin beads. A list of 269 unique peptides were quantified through LC-MS/MS parallel reaction monitoring method. Target engagement was calculated as the percentage of peptide signal lost after addition of BIIB-TTBKi when compared to the vehicle treated lysate. Using the ADP probe, we were able to detect a total of 150 kinases in the mouse cortical brain lysates (Fig 5A).
(§2) Mice were euthanized one hour following injection and homogenized brain lysates were labeled with Desthiobiotin-ADP-acyl phosphate probe (ADP probe). Desthiobiotinylated peptides were captured on streptavidin beads and peptides were quantified through LC-MS/MS parallel reaction monitoring method. Target engagement was calculated as the percentage of peptide signal lost when compared to the vehicle treated lysate. (A) Visualization of the off-target effects of BIIB-TTBKi at 75mg/kg. The ADP probe labelled around 150 unique kinases in mouse cortical brain lysates.

PIP4K2C = target: T2, PIP4K2C (Mus musculus, UniProt Q91XU3); test: as above; conditions: 75 mg/kg I.P., one hour, peptide TLVIKEVSSEDIADMHSNLSNYHQYIVK, ATP site
T2 construct: from tissue; host or cells: mouse cortical brain lysate
T2 sequence (Q91XU3 1-421): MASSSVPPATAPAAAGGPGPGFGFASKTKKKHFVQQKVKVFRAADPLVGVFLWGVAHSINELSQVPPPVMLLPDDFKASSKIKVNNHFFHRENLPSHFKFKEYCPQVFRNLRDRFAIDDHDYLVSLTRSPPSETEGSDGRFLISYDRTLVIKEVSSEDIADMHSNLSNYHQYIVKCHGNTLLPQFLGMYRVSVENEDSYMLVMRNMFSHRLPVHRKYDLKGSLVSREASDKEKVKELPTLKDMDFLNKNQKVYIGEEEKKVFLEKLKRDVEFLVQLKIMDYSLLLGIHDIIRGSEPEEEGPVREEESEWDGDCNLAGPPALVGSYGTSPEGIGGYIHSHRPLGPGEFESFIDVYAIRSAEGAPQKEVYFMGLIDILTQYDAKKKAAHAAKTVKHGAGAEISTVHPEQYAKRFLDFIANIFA
Text: as §1, §2

PIP5K3 = target: T3, PIP5K3 (Mus musculus, UniProt Q9Z1T6); test: as above; conditions: 75 mg/kg I.P., one hour, peptide GGKSGAAFYATEDDRFILK, ATP site
T3 construct: homogenized brain lysates were labeled with Desthiobiotin-ADP-acyl phosphate probe; from tissue; host or cells: mouse cortical brain lysate
T3 sequence (Q9Z1T6 whole entry): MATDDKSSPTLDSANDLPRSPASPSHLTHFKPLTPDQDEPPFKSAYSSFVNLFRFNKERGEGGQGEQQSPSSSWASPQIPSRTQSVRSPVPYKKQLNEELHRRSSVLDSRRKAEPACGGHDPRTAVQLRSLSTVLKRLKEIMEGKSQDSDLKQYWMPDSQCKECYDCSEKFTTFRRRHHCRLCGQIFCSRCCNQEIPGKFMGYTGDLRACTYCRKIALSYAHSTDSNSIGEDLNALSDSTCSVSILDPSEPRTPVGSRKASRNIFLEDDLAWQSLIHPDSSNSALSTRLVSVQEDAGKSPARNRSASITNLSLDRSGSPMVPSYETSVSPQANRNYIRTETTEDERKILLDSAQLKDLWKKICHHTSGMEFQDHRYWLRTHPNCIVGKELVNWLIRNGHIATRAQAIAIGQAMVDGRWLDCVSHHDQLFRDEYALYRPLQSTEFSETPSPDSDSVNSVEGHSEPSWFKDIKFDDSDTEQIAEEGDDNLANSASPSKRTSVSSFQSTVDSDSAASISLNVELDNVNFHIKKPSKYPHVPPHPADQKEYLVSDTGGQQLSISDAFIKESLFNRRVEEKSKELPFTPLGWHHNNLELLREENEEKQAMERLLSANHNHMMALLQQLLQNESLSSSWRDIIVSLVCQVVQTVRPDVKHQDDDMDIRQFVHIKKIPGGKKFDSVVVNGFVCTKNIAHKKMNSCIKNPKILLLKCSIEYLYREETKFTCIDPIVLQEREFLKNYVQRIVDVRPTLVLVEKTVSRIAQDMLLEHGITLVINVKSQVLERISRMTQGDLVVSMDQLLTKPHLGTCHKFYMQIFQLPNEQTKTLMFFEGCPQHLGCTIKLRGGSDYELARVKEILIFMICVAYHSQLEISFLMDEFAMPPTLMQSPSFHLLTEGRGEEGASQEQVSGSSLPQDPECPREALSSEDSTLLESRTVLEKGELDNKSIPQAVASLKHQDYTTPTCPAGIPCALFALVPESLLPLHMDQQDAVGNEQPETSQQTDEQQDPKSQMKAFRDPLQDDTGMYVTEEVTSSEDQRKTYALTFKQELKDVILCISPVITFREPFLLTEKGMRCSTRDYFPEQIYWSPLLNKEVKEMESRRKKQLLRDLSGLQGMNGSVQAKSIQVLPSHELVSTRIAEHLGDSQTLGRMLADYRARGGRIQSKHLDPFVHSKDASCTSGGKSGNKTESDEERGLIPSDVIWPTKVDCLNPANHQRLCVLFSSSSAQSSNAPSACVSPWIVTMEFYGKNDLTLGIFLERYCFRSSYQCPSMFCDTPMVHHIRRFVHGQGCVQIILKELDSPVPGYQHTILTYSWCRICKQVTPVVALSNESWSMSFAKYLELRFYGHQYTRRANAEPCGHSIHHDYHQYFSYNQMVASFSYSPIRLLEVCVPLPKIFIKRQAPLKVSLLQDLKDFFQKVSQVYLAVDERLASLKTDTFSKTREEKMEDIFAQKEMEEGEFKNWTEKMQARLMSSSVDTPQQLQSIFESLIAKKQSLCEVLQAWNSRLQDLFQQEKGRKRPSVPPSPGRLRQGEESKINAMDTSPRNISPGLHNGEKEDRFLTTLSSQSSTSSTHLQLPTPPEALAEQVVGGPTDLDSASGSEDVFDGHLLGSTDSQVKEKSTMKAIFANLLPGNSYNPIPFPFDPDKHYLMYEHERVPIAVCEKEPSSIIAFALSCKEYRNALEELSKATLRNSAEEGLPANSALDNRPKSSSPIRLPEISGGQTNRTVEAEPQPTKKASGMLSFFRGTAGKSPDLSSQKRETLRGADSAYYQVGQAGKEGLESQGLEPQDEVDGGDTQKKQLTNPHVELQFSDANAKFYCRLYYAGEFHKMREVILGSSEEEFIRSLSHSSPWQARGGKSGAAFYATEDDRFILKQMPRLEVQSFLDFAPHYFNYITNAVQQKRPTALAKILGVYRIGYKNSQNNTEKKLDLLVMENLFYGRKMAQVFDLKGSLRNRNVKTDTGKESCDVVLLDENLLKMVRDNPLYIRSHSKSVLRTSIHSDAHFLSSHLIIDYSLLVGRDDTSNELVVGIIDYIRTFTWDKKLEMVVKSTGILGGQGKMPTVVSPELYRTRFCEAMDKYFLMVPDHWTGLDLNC
Text: as §1, §2

TTBK1, TTBK2 = test: as above; conditions: 75 mg/kg I.P., one hour, peptide DIKPSNFAMGR, Lys2
Text: as §1, §2

FER = target: T4, FER (Mus musculus, UniProt P70451); test: Ex vivo KiNativ ATP/ADP probe competition in mouse cortical brain lysates; type: binding
T4 construct: from tissue; host or cells: mouse cortical brain lysate
T4 sequence (P70451 whole entry): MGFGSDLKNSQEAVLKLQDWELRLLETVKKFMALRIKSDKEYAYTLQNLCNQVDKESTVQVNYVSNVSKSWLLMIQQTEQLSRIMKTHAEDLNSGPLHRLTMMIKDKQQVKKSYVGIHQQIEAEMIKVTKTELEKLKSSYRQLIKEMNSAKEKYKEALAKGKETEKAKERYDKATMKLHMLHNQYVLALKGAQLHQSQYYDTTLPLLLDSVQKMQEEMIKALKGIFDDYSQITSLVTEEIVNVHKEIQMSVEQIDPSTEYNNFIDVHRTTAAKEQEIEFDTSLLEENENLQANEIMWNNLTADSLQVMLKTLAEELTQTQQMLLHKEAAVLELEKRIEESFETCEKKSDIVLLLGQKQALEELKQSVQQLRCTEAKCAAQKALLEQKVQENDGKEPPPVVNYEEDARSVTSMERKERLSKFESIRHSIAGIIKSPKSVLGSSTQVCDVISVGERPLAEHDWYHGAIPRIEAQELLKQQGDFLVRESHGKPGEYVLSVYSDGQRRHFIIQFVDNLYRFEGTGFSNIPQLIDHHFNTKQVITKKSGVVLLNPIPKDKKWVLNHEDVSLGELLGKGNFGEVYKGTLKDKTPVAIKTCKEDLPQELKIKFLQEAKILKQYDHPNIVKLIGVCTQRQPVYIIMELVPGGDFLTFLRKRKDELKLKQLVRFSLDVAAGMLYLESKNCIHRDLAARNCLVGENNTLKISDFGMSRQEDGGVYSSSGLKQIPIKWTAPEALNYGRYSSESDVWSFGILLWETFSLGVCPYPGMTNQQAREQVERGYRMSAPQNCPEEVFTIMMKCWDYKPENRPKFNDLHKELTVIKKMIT

[2] = Free drug in the brain after hypothermia experiment; type: in vivo; conditions: C57Bl/6, mouse, intraperitoneal, one hour after dosing
Description: Following hypothermia induction, 200–300 μL of blood was collected via cardiac punch and transferred to K2EDTA-treated BD Microtainers (Becton Dickinson and Co., Franklin Lakes, NJ). Mice were sacrificed via decapitation and brains were quickly removed and bisected sagitally. The right cortices, were isolated, placed into 2 mL microtubes along with a single 5 mm stainless steel bead and the left cortices were placed into 2 mL Lysing Matrix A tubes (MP Biomedicals, Santa Ana, CA). Both tubes were immediately snap frozen in liquid nitrogen. The whole blood-containing microtainers were centrifuged (2000 x g, 5 minutes) and plasma was transferred to 96-well plates for pharmacokinetic determination. […] The protein content of each sample was quantified using a Direct Detect Infrared Spectrometer (EMD Millipore Corp., Burlington, MA).
In vitro plasma and brain protein binding values were generated via the Rapid Equilibrium Dialysis method. […] At the conclusion of incubation, samples were taken from both matrix and buffered compartments, matrix-matched using blank buffer and matrix, extracted with acetonitrile, diluted with water, and analyzed utilizing an Agilent RapidFire 365 high-throughput LC coupled with MS/MS detection via an AB Sciex 5500. Free fractions (fu) were then calculated by comparing peak-area ratios of matrix and buffered compartments. […]

CCC(C)(O)C#Cc1cc2c(ccn2-c2ccnc(N)n2)cn1 (centres unmarked) [BIIB-TTBK1i]
clearance rate [1]: rapid | Percent Inhibition with BIIB-TTBKi at 75mpk (FES): 50.6% | Percent Inhibition with BIIB-TTBKi at 75mpk (PIP4K2C): 86.3% | Percent Inhibition with BIIB-TTBKi at 75mpk (PIP5K3): 90% | Percent Inhibition with BIIB-TTBKi at 75mpk (TTBK1, TTBK2): 82% | Percent Inhibition at 1μM (FER; QEDGGVYSSSGLKQIPIK, Activation Loop, ADP probe): 66.7% | Percent Inhibition at 1μM (FER; QEDGGVYSSSGLKQIPIK, Protein Kinase Domain, ATP probe): 69.4% | Percent Inhibition at 1μM (FER; TPVAIKTCKEDLPQELK, Lys1, ADP probe): 79.1% | Percent Inhibition at 1μM (FER; TPVAIKTCKEDLPQELK, Lys1, ATP probe): 74.9% | concentration at 1 h ([2]; 25mg/kg I.P., read-out: concentration of free drug in the brain): 207 nM | concentration at 1 h ([2]; 50mg/kg I.P., read-out: average free drug in the brain): 602 nM
